Results from US8450270B2 (Indiana University Research and Technology Corporation, priority 2008, dated 2013).

Molecular target: GLP-1 Receptor (Homo sapiens, UniProt P43220)
Experiment: Functional assay-cAMP synthesis (luciferase reporter, HEK293), GLP-1 receptor
Description: The luminescent light output indicates activation of the luciferase reporter gene, which in turn is a measure of the activation of the receptor.

Chain of GLP-1 Receptor (P43220 24-463, species assumed): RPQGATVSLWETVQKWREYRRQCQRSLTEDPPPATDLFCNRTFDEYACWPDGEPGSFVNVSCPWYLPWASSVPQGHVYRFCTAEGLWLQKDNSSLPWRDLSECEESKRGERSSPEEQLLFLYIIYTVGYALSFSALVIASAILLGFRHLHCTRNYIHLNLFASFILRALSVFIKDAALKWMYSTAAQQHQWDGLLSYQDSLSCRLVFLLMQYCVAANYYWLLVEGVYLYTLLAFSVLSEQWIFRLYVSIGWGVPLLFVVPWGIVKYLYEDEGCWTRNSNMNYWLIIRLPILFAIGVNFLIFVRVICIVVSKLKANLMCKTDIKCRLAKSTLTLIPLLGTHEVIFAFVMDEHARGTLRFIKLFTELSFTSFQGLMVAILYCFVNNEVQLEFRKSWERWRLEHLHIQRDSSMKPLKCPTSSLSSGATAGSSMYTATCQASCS

CCCCCCCCCCCCCC(=O)NCCCC[C@H](NC(=O)[C@H](CC(=O)O)NC(=O)[C@H](CO)NC(=O)[C@@H](NC(=O)[C@H](Cc1ccccc1)NC(=O)[C@@H](NC(=O)CNC(=O)[C@H](CCC(N)=O)NC(=O)[C@@H](CO)NC(=O)[C@@H](N)Cc1c[nH]cn1)[C@@H](C)O)[C@@H](C)O)C(=O)N[C@@H](CO)C(=O)N[C@@H](CCCCN)C(=O)N[C@@H](Cc1ccc(O)cc1)C(=O)N[C@@H](CC(C)C)C(=O)N[C@@H](CC(=O)O)C(=O)N[C@@H](CCC(=O)O)C(=O)N[C@@H](CCCNC(=N)N)C(=O)N[C@@H](CCCNC(=N)N)C(=O)N[C@@H](C)C(=O)N[C@@H](CCCCN)C(=O)N[C@@H](CC(=O)O)C(=O)N[C@@H](Cc1ccccc1)C(=O)N[C@H](C(=O)N[C@@H](CCC(N)=O)C(=O)N[C@@H](Cc1c[nH]c2ccccc12)C(=O)N[C@@H](CC(C)C)C(=O)N[C@@H](CCSC)C(=O)N[C@@H](CC(N)=O)C(=O)N[C@H](C(N)=O)[C@@H](C)O)C(C)C [Peptide dS2K10(C14)E16K20-Gluc Amide, HXQGTFTSDKSKYLDERRAKDFVQWLMNT-amide]
EC50: 0.041 nM

CCCCCCCCCCCCCCCC(=O)NCCCC[C@H](NC(=O)[C@H](CC(=O)O)NC(=O)[C@H](CO)NC(=O)[C@@H](NC(=O)[C@H](Cc1ccccc1)NC(=O)[C@@H](NC(=O)CNC(=O)[C@H](CCC(N)=O)NC(=O)[C@@H](CO)NC(=O)[C@@H](N)Cc1c[nH]cn1)[C@@H](C)O)[C@@H](C)O)C(=O)N[C@@H](CO)C(=O)N[C@@H](CCCCN)C(=O)N[C@@H](Cc1ccc(O)cc1)C(=O)N[C@@H](CC(C)C)C(=O)N[C@@H](CC(=O)O)C(=O)N[C@@H](CCC(=O)O)C(=O)N[C@@H](CCCNC(=N)N)C(=O)N[C@@H](CCCNC(=N)N)C(=O)N[C@@H](C)C(=O)N[C@@H](CCCCN)C(=O)N[C@@H](CC(=O)O)C(=O)N[C@@H](Cc1ccccc1)C(=O)N[C@H](C(=O)N[C@@H](CCC(N)=O)C(=O)N[C@@H](Cc1c[nH]c2ccccc12)C(=O)N[C@@H](CC(C)C)C(=O)N[C@@H](CCSC)C(=O)N[C@@H](CC(N)=O)C(=O)N[C@H](C(N)=O)[C@@H](C)O)C(C)C [Peptide dS2K10(C16)E16K20-Gluc Amide, HXQGTFTSDKSKYLDERRAKDFVQWLMNT-amide]
EC50: 0.041 nM
